This note sets out measurements from ChEMBL document CHEMBL3507680, “University of Dundee, Gates Library screen for HepG2 cell viability”.

The data set in a line: Human HepG2 cell viability assay in 384 well format. It counts as toxicity, cell-based. To be noted: HepG2 cells, read-out: Inhibition. Also on record: dose 125 nL, time 70.5 hour; cytotoxicity at 70.5 h: concentration not given beside the values.
In the case of `FC1(F)CCN(Cc2ccncc2)CC12CCN(c1cccnc1)C2` (centres undefined), the cytotoxicity at 70.5 h was determined as 2.6%.

On to `CCc1cnc(N)nc1NCCCn1cc(Cl)cn1`, for which the cytotoxicity at 70.5 h is -5.81%.

Consider `O=C(Cc1ccccc1C(F)(F)F)N1CCC2(CC1)OCCCC2O` (centres undefined), for which the cytotoxicity at 70.5 h is -16.7%.

On to `COc1ccc2c(c1)CC(C1CCOCC1)N(C(=O)c1ccn(C)n1)C2` (centres undefined), for which the cytotoxicity at 70.5 h was found to be 2.06%.

For the compound `Cc1cc(N2CCOC(C(F)(F)F)C2)nc(-c2ccccc2)n1` (centres undefined), the cytotoxicity at 70.5 h is -24.8%.

On to `O=C(c1cnccn1)N1C[C@@H](c2ccccc2)[C@@]2(CCNC2=O)C1`, for which the cytotoxicity at 70.5 h is -4.45%.

With `CC(=O)NCC(=O)N1Cc2ccnn2CC(COCCN(C)C)C1` (centres undefined), the cytotoxicity at 70.5 h was -6.24%.

With `c1cnc2[nH]c(C3CCNCC3)c(CN3CCOCC3)c2c1`, the cytotoxicity at 70.5 h was -1.47%.

Consider `CCCc1cc(C(=O)NCCCC(=O)N2Cc3ccccc3C2)[nH]n1`, for which the cytotoxicity at 70.5 h is -6.02%.

As to `Cn1cnc2c1CCN(Cc1ccc(Cl)c3cccnc13)C2`, the cytotoxicity at 70.5 h was determined as 15.6%.

Turning to `COc1cc(CN(C)[C@@H]2COC[C@H]2c2ccc(F)cc2)cc(OC)c1`, the cytotoxicity at 70.5 h is 0.803%.

Take `CC(C)CC(NC(=O)c1cccc(F)c1F)C(=O)Nc1cc[nH]n1` (centres undefined): the cytotoxicity at 70.5 h was -1.3%.

On to `OCC1(NCc2cnc(-c3ccccn3)s2)CCOCC1`, for which the cytotoxicity at 70.5 h is 28%.

In the case of `COc1ncccc1CN1Cc2nccn2CC(CN2CCCC2)C1` (centres undefined), the cytotoxicity at 70.5 h was -2.53%.

In the case of `CCn1cc(CN2CCc3nc(-c4ccccn4)nc(O)c3C2)cn1`, the cytotoxicity at 70.5 h is -10%.

For the compound `Cc1nccn1C1CCCN(C(=O)c2ccc3c(c2)OCCCO3)C1` (centres undefined), the cytotoxicity at 70.5 h was -0.919%.

For the compound `CS(=O)(=O)N1CCC(C(=O)NCCCn2cc(Cl)cn2)CC1`, the cytotoxicity at 70.5 h was -13.1%.

For the compound `OC1(c2cn(CC3CCN(C4CCSC4)CC3)nn2)CCCC1` (centres undefined), the cytotoxicity at 70.5 h amounted to 1.14%.

As for `NC(=O)CSc1ccccc1NCc1nc(Cc2ccccc2)no1`, the cytotoxicity at 70.5 h is -6.14%.

For the compound `CC(=O)c1cccc(OCCCC(=O)N(C)CCc2ccncc2)c1`, the cytotoxicity at 70.5 h is -10.1%.

Take `Cc1cc(CN(C)C(=O)C2CCCN(C(N)=O)C2)no1` (centres undefined): the cytotoxicity at 70.5 h is -5.82%.

As to `CCC1=N[C@@]2(CC[C@@H]3CN(Cc4ccccc4C)C[C@@H]32)C(=O)N1C`, the cytotoxicity at 70.5 h is 0.166%.

Consider `CCS(=O)(=O)NC(CCSC)C(=O)Nc1ccc(F)cc1` (centres undefined), for which the cytotoxicity at 70.5 h was -85.2%.

For the compound `CS(=O)(=O)N1CCC(c2nnc(CN3CCCC3)n2C2CC2)CC1`, the cytotoxicity at 70.5 h was 0.642%.

In the case of `Cc1c(Cl)cccc1NC(=O)CCNc1ccc(C#N)cn1`, the cytotoxicity at 70.5 h is -6.94%.

Consider `O=C(CCCn1cnc2ccccc2c1=O)Nc1nc[nH]n1`, for which the cytotoxicity at 70.5 h came out at 22.9%.

With `CN(C)Cc1cnc2n1CCN(C(=O)Cc1cccc(F)c1)CC2`, the cytotoxicity at 70.5 h came out at 4.88%.

Turning to `CCN(CC)Cc1nc2c(o1)CN(C(=O)c1ccncc1F)C2`, the cytotoxicity at 70.5 h is -4.3%.

In the case of `CC(C)n1ccnc1C1CCCN(c2ccncc2F)C1` (centres undefined), the cytotoxicity at 70.5 h is -5.94%.

On to `c1ccc(N2CCc3ncnc(C4CC4)c3CC2)nc1`, for which the cytotoxicity at 70.5 h is -12.5%.

Take `CCN(CC(=O)NC)C(=O)c1cc(-c2cccc(Cl)c2)no1`: the cytotoxicity at 70.5 h is -2.85%.

Turning to `O=C1CCCN1CCC1CCCCN1C(=O)c1ccc(SCCO)cc1` (centres undefined), the cytotoxicity at 70.5 h is -6.58%.

In the case of `Cc1nc(C)n(CCCNc2ncnc3onc(C)c23)n1`, the cytotoxicity at 70.5 h was -3.47%.

As for `Cc1noc(CN2CCN(c3cncc(Cl)n3)CC2)n1`, the cytotoxicity at 70.5 h is -4.58%.

`CC(C)(C)n1ncc2c1CCCC2NCc1ccsc1` (centres undefined): the cytotoxicity at 70.5 h was -0.727%.

As to `CN(C)c1ccc(C(O)CNC(=O)NCCCc2ccccc2)cc1` (centres undefined), the cytotoxicity at 70.5 h was -9.74%.

`COc1nn(C)cc1C(=O)N1CCC(c2ccccc2)C1` (centres undefined): the cytotoxicity at 70.5 h was -1.63%.

Regarding `Cn1ncc2c1C(COCC1CC1)CN(c1ncc(F)cn1)C2` (centres undefined), the cytotoxicity at 70.5 h is -4.28%.

For the compound `CCS(=O)(=O)N1CC[C@@H]2[C@H]1CCC(=O)N2CCOC`, the cytotoxicity at 70.5 h was -3.05%.

Turning to `Cc1nccn1-c1cccc(N2CCC(OCC3CCCCO3)CC2)n1` (centres undefined), the cytotoxicity at 70.5 h was -11.6%.

On to `COc1cc(C(=O)N2CCCC(n3cncn3)C2)ccc1C` (centres undefined), for which the cytotoxicity at 70.5 h was -8.45%.

Turning to `COCCC(=O)N1CCN(CC(C)C)c2nc(C)ccc2C1`, the cytotoxicity at 70.5 h is -4%.

For the compound `COc1ccc(-c2cc(N)ccn2)c(OC)c1OC`, the cytotoxicity at 70.5 h was -9.71%.

For the compound `CN(C)c1nc2c(c(N(C)C)n1)CCN(C(=O)CN1C[C@@H]3CC[C@H]1C3)C2`, the cytotoxicity at 70.5 h was -6.59%.

Consider `O=C(c1cccc(-c2ccc(F)cc2)c1)N1CCCC(O)(CO)CC1` (centres undefined), for which the cytotoxicity at 70.5 h stood at 9.52%.

For the compound `CC(C)(C)CC(=O)N1[C@@H](c2ccco2)[C@@H](CO)C[C@]12CCCCNC2=O`, the cytotoxicity at 70.5 h was -5.67%.

On to `CN(CCn1cncc1-c1cnc(N2CCOCC2)nc1)C1CCCC1`, for which the cytotoxicity at 70.5 h is -5.17%.

In the case of `CCC(c1ccncc1)N(C)S(C)(=O)=O` (centres undefined), the cytotoxicity at 70.5 h is -1.1%.

Consider `O=C(c1nc(Cc2c[nH]c3ccccc23)no1)N1CCCC1`, for which the cytotoxicity at 70.5 h was -3.26%.

On to `CN(C)C(=O)CN1CCc2ncnc(N(C)C)c2CC1`, for which the cytotoxicity at 70.5 h is -6.04%.

On to `Cn1c(CO)cnc1SC(C(N)=O)c1ccccc1` (centres undefined), for which the cytotoxicity at 70.5 h is -15.2%.

On to `COc1ccc(Br)c(C(=O)NCCNc2ccc(C(F)(F)F)cn2)c1`, for which the cytotoxicity at 70.5 h is -13.7%.

For the compound `CCn1nc(C)c(CNC(=O)NCC(C)(O)c2ccccc2)c1C` (centres undefined), the cytotoxicity at 70.5 h was -3.1%.

Consider `CCn1ccc2ccnc(CC3CN(C(=O)Cn4ccnc4C)C3)c21`, for which the cytotoxicity at 70.5 h is -5.67%.

`COc1cccc(CNC(=O)c2nc3c(s2)CCN(C(C)=O)CC3)c1`: the cytotoxicity at 70.5 h is -11%.

With `CC(C(=O)NC1CCCCC1)N1CCc2[nH]nc(C(F)(F)F)c2C1` (centres undefined), the cytotoxicity at 70.5 h was -7.82%.

On to `Nc1nc(N2CCCCC2)ncc1C(=O)NCc1ccc(F)c(Cl)c1`, for which the cytotoxicity at 70.5 h was -20%.

Consider `Cc1ccc(CN(Cc2[nH]cnc2C)C2CC(C)(C)NC(C)(C)C2)o1`, for which the cytotoxicity at 70.5 h turned out to be 17.5%.

Take `O=C(c1cnc2c(c1)CCC2)N1CCCC(CO)(CC2CC2)C1` (centres undefined): the cytotoxicity at 70.5 h is -9.59%.

Consider `CCc1noc(CNc2cc3c(cc2Cl)OCCCO3)n1`, for which the cytotoxicity at 70.5 h was -11%.

Take `CCNC(=O)C1CCN(Cc2ccccc2OCC(F)(F)F)CC1`: the cytotoxicity at 70.5 h was -4.11%.

On to `CC(C)c1cc(CN(C)C(=O)CN2CCNC2=O)no1`, for which the cytotoxicity at 70.5 h is 18.6%.

Take `CCN(C)[C@H]1CN(C(=O)c2cccc(N3CCS(=O)(=O)CC3)c2)C[C@@H]1O`: the cytotoxicity at 70.5 h was -7.37%.

Turning to `O=C(CCc1nccs1)N1CCN(c2nccs2)CC1`, the cytotoxicity at 70.5 h is -7.6%.

`Cc1n[nH]c(C2CN(C(=O)c3cnc[nH]3)CCO2)n1` (centres undefined): the cytotoxicity at 70.5 h is -11.1%.

With `COCCNC(=O)c1nc(NS(=O)(=O)c2ccccc2)sc1C`, the cytotoxicity at 70.5 h was -18.8%.

Turning to `CCCN1CCN(C(=O)c2cccc(C)n2)[C@H]2CS(=O)(=O)C[C@H]21`, the cytotoxicity at 70.5 h stood at 14.2%.

Consider `Cc1nc[nH]c1-c1nccn1CCN1CCCC1=O`, for which the cytotoxicity at 70.5 h turned out to be 24.3%.

In the case of `CNc1ncc2c(n1)CN(Cc1ccc(Cl)cc1)C2=O`, the cytotoxicity at 70.5 h was -9.81%.

Consider `O=C1CC2(CCN(CCO)C2)CN1c1cccc(F)c1` (centres undefined), for which the cytotoxicity at 70.5 h was -10.9%.

As to `CC(C)c1nnc(CN2CCCc3ccc(S(N)(=O)=O)cc32)o1`, the cytotoxicity at 70.5 h was -0.377%.

As for `CC(=O)NCC(=O)N1CC[C@H](OCC2CC2)[C@@H]1Cc1cccnc1`, the cytotoxicity at 70.5 h is -8.28%.

For `CCc1csc(C2CCCN(C(=O)CCn3cc(C)cn3)C2)n1` (centres undefined), the cytotoxicity at 70.5 h is 17.5%.

On to `CN(C)S(=O)(=O)c1cccc(NC(=O)Cc2ccon2)c1`, for which the cytotoxicity at 70.5 h is -4.37%.

For `Cc1nc(CN2CCOC3(CCCN(c4nccs4)C3)C2)cs1` (centres undefined), the cytotoxicity at 70.5 h stood at 4.12%.

For the compound `CC(C)n1[nH]c(=O)c2c1NC(=O)CC2c1cccnc1` (centres undefined), the cytotoxicity at 70.5 h was determined as 9.01%.

Turning to `Cc1nc(C)c(C(=O)Nc2ccc(-c3nnc(N(C)C)o3)cc2)o1`, the cytotoxicity at 70.5 h was -4.93%.

Consider `CNc1ncccc1CN1CCN(C(C)=O)CC(C(N)=O)C1` (centres undefined), for which the cytotoxicity at 70.5 h is -4.74%.

Take `Cn1cnnc1C1CCN(C(=O)CCCOc2ccccc2)CC1`: the cytotoxicity at 70.5 h was -0.661%.

With `Cc1ncc(CN(C)C(=O)Nc2cccc(CN3CCOC3=O)c2)s1`, the cytotoxicity at 70.5 h was -3.49%.

Take `CS(=O)(=O)N1CCO[C@@H]2CN(Cc3ccncc3)C[C@@H]2C1`: the cytotoxicity at 70.5 h is -5.73%.

Take `O=C(Cn1cccn1)N1CCC(c2nnc(C(F)(F)F)o2)CC1`: the cytotoxicity at 70.5 h amounted to 30.9%.

As to `Cc1ccc(C(=O)N2CC(=O)N(Cc3ccco3)CC(O)C2)cc1` (centres undefined), the cytotoxicity at 70.5 h is -2.64%.

Turning to `c1cc(NC2CC3(CCN(Cc4cscn4)C3)C2)ncn1` (centres undefined), the cytotoxicity at 70.5 h was -7.63%.

As for `CCNc1ccnc(CN2CCCC2C(=O)Nc2nccs2)c1` (centres undefined), the cytotoxicity at 70.5 h was 8.54%.

Take `CCOC(=O)c1sc(NC(=O)C(C)(C)C)c(C#N)c1C`: the cytotoxicity at 70.5 h was 41.6%.

On to `CC(C)c1nc(CN(C)C(=O)c2ccc3c(c2)OCC(=O)N3)cs1`, for which the cytotoxicity at 70.5 h was -6.75%.

On to `CC(O)c1cn(Cc2cccc(C(F)(F)F)c2)nn1` (centres undefined), for which the cytotoxicity at 70.5 h is -4.44%.

On to `NC(=O)NC(=O)CCSc1ccccc1Cl`, for which the cytotoxicity at 70.5 h is -17.5%.

With `Cc1nsc(N2CCCN(C(=O)CCc3ccsc3)CC2)n1`, the cytotoxicity at 70.5 h is -2%.

Take `Nc1nccc(-c2c[nH]nc2C2CCCCC2)n1`: the cytotoxicity at 70.5 h was found to be 47.1%.

For the compound `Cc1noc(C)c1C(=O)N1CCCC(c2cc(C(F)(F)F)[nH]n2)C1` (centres undefined), the cytotoxicity at 70.5 h amounted to 11%.

On to `COc1cc(C2SCC(=O)Nc3n[nH]cc32)cc(OC)c1O` (centres undefined), for which the cytotoxicity at 70.5 h was -19.7%.

In the case of `CCC(=O)N1CCN(C(=O)NCc2c(C)cc(C)cc2C)CC1`, the cytotoxicity at 70.5 h was -11.6%.

In the case of `CC(=O)Nc1nc(CN(C)C2CCCN(c3cccnn3)C2)cs1` (centres undefined), the cytotoxicity at 70.5 h was -13.5%.

Consider `O=C(NC[C@]12COC[C@H]1CN(Cc1nccs1)C2)c1ccsc1`, for which the cytotoxicity at 70.5 h is -3.53%.

For `COC(=O)c1ccc(N2CCC(c3ccccc3)CC2)nn1`, the cytotoxicity at 70.5 h is -8.39%.

In the case of `COc1ccccc1C1(CNCc2cccc(C#N)c2)CCOCC1`, the cytotoxicity at 70.5 h was -9.16%.

For `N#CC1=C(N)Nn2c(nnc2-c2ccccc2Br)S1`, the cytotoxicity at 70.5 h was -19%.
